In one assay the target is Akt-S473E. In words: ELISA with immobilized Akt-S473E, relative affinity of biotinylated ligands. Format: binding, H. sapiens. To be noted: read-out: binding affinity for Akt. On the technique in general: In an ELISA, binding on a coated surface is turned into a signal by an enzyme label.
The next assay has as its target T1, GSK3β (Homo sapiens, UniProt P49841).
T1 construct: a set of His-tagged active protein kinase domains from the AGC family; purchased Invitrogen
Put plainly: Specificity ELISA, immobilized ligand probed with His-tagged kinases. The conditions noted are these: A450 normalized to Akt1-S473E binding. As to the method: (§1) Biotinylated ligand was immobilized on Streptavidin plates and probed with 25 nM His-tagged kinase followed by anti-Histag antibody-HRP conjugate. Values represent the mean A450 obtained from three experiments after normalization to Akt1-S473E binding. The error bars show the standard error.
(§2) The specificity of the anchor ligand, biligand, and triligand developed in Example 1 was analyzed using a battery of protein kinases. […] Akt1-S473E was expressed and purified as described above.
(§3) The relative affinity of each kinase was determined by probing with an anti-His6 antibody and normalizing the response to Akt1-S473E. All proteins were diluted in Akt blocking buffer to a final concentration of 24 nM prior to use. Ligands were diluted in Akt blocking buffer to a final concentration of 2.5 μM prior to use. 100 μL of each ligand (250 pmol) was added to each well of a HBC streptavidin-coated 96-well plate. The ligands were bound at 4° C. for 1 hour followed by addition of D-biotin to a final concentration of 500 μM. After 10 minutes at 4° C., the wells were washed three times with Akt blocking buffer and blocked overnight in 5% non-fat milk.
(§4) The wells were washed three times in Akt blocking buffer and 50 μL of active protein was applied to each well. After binding for 120 minutes at 4° C., the wells were washed three times in Akt blocking buffer to remove unbound protein. 50 μL of horseradish peroxidase-conjugated Anti-His6 antibody was added at a dilution of 1:100 (His Probe (H-3) HRP conjugate, Santa Cruz Biotechnology). The antibody-HRP conjugate was incubated for 60 minutes and the wells were washed 3 times in TBST and once in TBS. 50 μL of peroxidase substrate (KPL) was added and the resulting color change was quenched with 50 μL 1 M H2SO4. The A450 measured on a 96-well plate reader. […] The mean value for the triplicates was calculated and plotted and the error bars were generated from the standard error of the mean (GraphPad Prism).

The next assay relates to Akt1. Described as above. The conditions noted are these: A450 normalized to Akt1-S473E binding; kinase panel. Also on record: species or system H. sapiens. How it is done:
as §1, §2, §3, §4

The subject of assay [1] is Akt1-S473E-T308P. Put plainly: [γ-32P]-ATP kinase activity assay, inhibition of Akt1-S473E-T308P. Format: biochemical, H. sapiens. The conditions noted are these: 120 μM compound, 30 minutes at room temperature, in the absence and presence of the conjugated small molecule inhibitor. As to the method:
Peptide is SEQ ID NO:22. Kinase reactions were carried out with 120 μM of each compound for 30 minutes at room temperature. The amount of phosphorylated substrate was quantitated by liquid scintillation counting and the % Akt1-S473E-T308P activity determined based on the amount of product formed in the control kinase reaction. The values shown are the mean value of three experiments and the error bars are the standard deviation.
The activity of Akt-S473E-T308P was characterized by a [γ-^32P]-ATP kinase activity assay measuring the incorporation of ^32P into biotinylated crosstide peptide (Anaspec). Briefly, reactions containing 80 ng of Akt-S473E-T308P, 50 μM Bio-crosstide, and varying concentrations of ATP/[γ-^32P]-ATP (specific activity=1.5 mCi/mL).
(§5) Candidate sequences were scaled up and tested for their ability to inhibit Akt1-S473E-T308P activity. […] This peptide was re-synthesized as a C-terminal biotinylated peptide and used as the anchor in the biligand screen.

Assay [2] concerns Akt1-S473E-T308P. In words: Phosphorylation of biotinylated anchor peptide in standard kinase reaction. Format: biochemical, H. sapiens. To be noted: 30 min at room temperature, liquid scintillation counting. How it is done:
Biotinylated peptides were incubated in a standard kinase reaction mixture for 30 min. at room temperature. A portion of the reaction was spotted onto a SAM2 Biotin Capture Membrane (Promega), washed, and analyzed by liquid scintillation counting. The total counts per minute (cpm) are shown for the anchor peptide (VFYRL-Bio(1) (SEQ ID NO:22) and VFYRL-Bio(2) (SEQ ID NO:22)) as well as the standard substrate peptide (Bio-Crosstide). The number in parentheses identifies the diastereomer based on retention time in RP-HPLC.
as §5

For a further assay, the system named is Akt. Put plainly: Immunoprecipitation of Akt from OVCAR3 cell lysates with immobilized ligands. It is filed as binding. To be noted: EGF and insulin induced or control, Western blot with pan-Akt antibody. On the technique in general: In western blotting, separated proteins are transferred to a membrane and probed.
The next assay addresses T2, wildtype Akt1 PH Domain (Homo sapiens, UniProt P31749).
T2 construct: The first 124 N-terminal amino acids from full length Akt1 were used as the PH Domain DNA; thrombin cleavage site (C); 6-His (C); made in house; host or cells: E. coli
In words: Streptavidin-agarose pulldown assay. It is filed as binding. To be noted: Western blot, relative protein band sizes. As to the method:
(§6) These resins were then incubated with either (a) WT or (b) E17K Mutant PHD to measure the amount of pulldown for each potential anchor ligand. Peptide eefef is SEQ ID NO:5. Peptide yleaf is SEQ ID NO:16.
(§7) Pulldown assays were done on Streptavidin Agarose resin from Novachem. The resin was incubated with N-terminally biotinylated anchor peptide candidates identified via the ClusterLigand sequence analysis. The anchor candidate coated beads were then incubated with both wildtype and mutant protein to compare the selectivity of the ligands, as well as the binding ability.
(§8) Assays were done with 50 uL of Streptavidin-Agarose slurry (25 uL resin) in Spin-X tubes. Resin was aliquotted into 14 tubes—six ligands plus a blank tested against two different proteins, then washed three times with 1×TBS with 0.25% IPEGAL detergent added. Each set of tubes was incubated with 170 nmol of the appropriate biotinylated ligand in 200 uL 1×HEPES (10 mM HEPES, 150 mM NaCl, 0.25% IPEGAL, 5 mM EDTA) or plain buffer for the blank. Ligand binding was done for one hour at room temperature, then resin was washed three times with 1×HEPES. Resin was blocked with 1×HEPES with 5% BSA for two hours. The anchor-coated resin was then incubated with either wildtype or mutant expressed PH domain protein overnight (˜16 hours) in cold room (4° C.). Protein was spun out of tubes, and the resin was washed three times with high salt TBS, then incubated for five minutes in the high salt buffer. The resin was then washed three times with the 1×TBS buffer, and spun out to dry completely. 50 uL of denaturing SDS gel loading buffer with 10% B-mercaptoethanol was added to the samples and they were incubated at 95° C. for ten minutes to denature. The gel loading buffer was spun out of the Spin-X tubes and the samples were run on an Any KD BioRad Premade Gel under denaturing conditions. Gel was transferred to nitrocellulose membrane and western blotted. Proteins were detected using rabbit polyclonal anti-Akt1 antibody (ab64148, Abcam) and an anti-rabbit HRP conjugated secondary anti-body then developed with West Pico Chemilluminescent substrate (Pierce).

For assay [3], the target named is T3, E17K mutant Akt1 PH Domain (Homo sapiens, UniProt P31749, E17K).
T3 construct: The first 124 N-terminal amino acids from full length Akt1 were used as the PH Domain DNA; thrombin cleavage site (C); 6-His (C); made in house; host or cells: E. coli
Put plainly: Streptavidin-agarose pulldown assay. To be noted: Western blot, relative protein band sizes. Format: binding. How it is done: as §6, §7, §8

Experimental findings from US12480950B2, “AKT-specific capture agents, compositions, and methods of using and making” (California Institute of Technology, priority 2011, dated 2025) are described below.

Square brackets hold non-standard residues; d marks the D form. Ends that are not written are not given here. Pra = C#CC[C@H](N)C(=O)O; Az8 = not defined here

Sequence of Akt1-S473E-T308P (P31749 150-449 limits assumed, stated change not applied): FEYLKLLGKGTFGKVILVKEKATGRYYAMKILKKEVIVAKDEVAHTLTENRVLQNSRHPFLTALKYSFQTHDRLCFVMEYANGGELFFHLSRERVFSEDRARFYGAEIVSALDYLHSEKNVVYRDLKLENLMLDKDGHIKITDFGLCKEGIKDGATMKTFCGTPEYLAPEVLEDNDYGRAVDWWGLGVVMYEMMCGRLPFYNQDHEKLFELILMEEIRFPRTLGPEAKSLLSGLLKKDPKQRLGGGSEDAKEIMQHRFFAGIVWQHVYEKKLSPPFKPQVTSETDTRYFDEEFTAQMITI
Sequence of Akt1 (P31749 150-408 limits assumed): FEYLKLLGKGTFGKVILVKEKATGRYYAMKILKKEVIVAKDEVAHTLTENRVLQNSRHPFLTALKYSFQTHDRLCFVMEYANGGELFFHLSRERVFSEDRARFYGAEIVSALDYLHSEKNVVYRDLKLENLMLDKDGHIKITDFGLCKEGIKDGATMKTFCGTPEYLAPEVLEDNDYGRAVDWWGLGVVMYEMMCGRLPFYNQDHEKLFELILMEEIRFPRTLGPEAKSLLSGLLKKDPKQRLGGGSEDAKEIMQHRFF
T2 sequence (P31749 1-124): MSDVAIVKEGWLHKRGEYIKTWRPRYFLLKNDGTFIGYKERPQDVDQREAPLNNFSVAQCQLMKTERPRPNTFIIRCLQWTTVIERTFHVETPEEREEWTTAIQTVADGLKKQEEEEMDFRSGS
T3 sequence (P31749 1-124 E17K): as the sequence (P31749 1-124) above, with E17K counted along it
T1 sequence (P49841 56-340 limits assumed, species assumed): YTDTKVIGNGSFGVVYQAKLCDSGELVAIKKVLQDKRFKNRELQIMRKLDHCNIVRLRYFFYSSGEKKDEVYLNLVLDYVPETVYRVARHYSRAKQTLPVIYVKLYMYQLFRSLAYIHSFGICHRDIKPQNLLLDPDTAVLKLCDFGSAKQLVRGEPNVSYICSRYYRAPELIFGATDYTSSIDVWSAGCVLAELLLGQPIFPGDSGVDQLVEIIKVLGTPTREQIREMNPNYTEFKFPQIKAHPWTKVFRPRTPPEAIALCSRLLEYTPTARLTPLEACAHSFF
Sequence of Akt-S473E (P31749 144-449 limits assumed, stated change not applied): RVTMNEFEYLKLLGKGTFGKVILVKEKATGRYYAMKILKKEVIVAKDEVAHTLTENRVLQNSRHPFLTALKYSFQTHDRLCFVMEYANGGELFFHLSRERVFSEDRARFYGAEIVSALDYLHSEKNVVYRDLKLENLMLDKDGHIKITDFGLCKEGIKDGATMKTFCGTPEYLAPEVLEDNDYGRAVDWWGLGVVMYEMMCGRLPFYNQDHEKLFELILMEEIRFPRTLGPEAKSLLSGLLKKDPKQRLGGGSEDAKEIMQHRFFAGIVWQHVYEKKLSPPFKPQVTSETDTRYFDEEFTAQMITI
Experimental for Akt-S473E: Akt-S473E was immobilized on Ni-NTA plates and incubated with varying concentrations of biotinylated peptide. All values were normalized to the binding observed at saturation.
The affinity of the anchor ligand, biligand, and triligand developed in Example 1 was determined by ELISA with immobilized Akt-S473E.
3 μg of Akt-S473E was added to each well in a HisSorb Ni-NTA plate (Qiagen) in 50 μL of ELISA blocking buffer (25 mM Tris-Cl (pH=7.5), 150 mM NaCl, 10 mM MgCl2, 0.1% (v/v) Tween-20, and 4 mg/mL BSA). 50 μL of imidazole blocking buffer (25 mM Tris-Cl (pH=7.5), 150 mM NaCl, 10 mM MgCl2, 0.1% (v/v) Tween-20, 100 mM imidazole, and 4 mg/mL BSA) was added to the control wells. After 18 hours at 4° C., the wells were washed with ELISA blocking buffer and 50 μL of each ligand dilution was added in ELISA blocking buffer. The ligands were bound at 4° C. for 120 minutes followed by three washed in ELISA blocking buffer. 50 μL of horseradish peroxidase-conjugated streptavidin (SA-HRP, Thermo) was added (1:5000 dilution in ELISA blocking buffer) and incubated for 70 minutes at 4° C. […] 50 μL of peroxidase substrate (KPL) was added to generate the final signal which was quenched in 1 M H2SO4 and quantitated on a 96-well plate reader at X=450 nm. The Net A450 was calculated by subtracting the A450 of each blank well (No Akt-S473E) from the experimental well. […]

With Az8-VFYRLGY-CONH2 [anchor ligand], the Kd at Akt-S473E was greater than 25 µM. In addition, the “binding to GSK3β” value on GSK3β is given as “only modest binding”. In the assay on Akt1, the “specificity / selectivity for Akt1” value is listed as “very specific for the Akt1 protein”. Further, the “inhibition of Akt1” value in the assay on Akt1-S473E-T308P [1] is on record as roughly 95%. Moreover, the “phosphorylation by Akt in vitro” value in the assay with Akt1-S473E-T308P [2] is “not phosphorylated”.
As to “biligand: anchor ligand Az8-VFYRLGY linked by 1,4-triazole to secondary ligand Pra-FWFLRG-CONH2; biotinylated for assays (peptide 2 [Pra]FWFLRG-NH2; not fully specified (N-terminus, C-terminus, bridges); reading uncertain; also: biotinylated for assays, triazole at chain B 1 to a chain's N-terminus)”, the “immunoprecipitation of Akt” value with Akt is given as “increased affinity”. In addition, the “binding to GSK3β” value in the assay with GSK3β is reported as “significant cross-reactivity”. Also, the “specificity / selectivity for Akt1” value in the assay on Akt1 is “reduced selectivity”.
In the case of “eefef ([dE][dE][dF][dE][dF]; not fully specified (N-terminus); printed as eefef; also: biotinylated, position not confirmed)”, the “pulldown of wildtype PH Domain” value with wildtype Akt1 PH Domain is “the only pulldown of the wildtype protein”. Besides, the “pulldown of E17K mutant PH Domain” value in assay [3] is “the least pulldown for the mutant protein”.
The matching figures for “yleaf ([dY][dL][dE][dA][dF]; not fully specified (N-terminus); printed as yleaf; also: biotinylated, position not confirmed)”: “the least binding to the wildtype” and “the greatest binding to the mutant”.
